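Grown in 96-well plates, cells were treated for 48 hours with each compound at five concentrations. Insufficient inhibition: endpoint recorded as highest concentration tested. Here, GI50 denotes the concentration required for 50% inhibition of growth. Definition used: TGI = concentration required for complete inhibition of growth.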
Assays:
Assay in all cases: growth of human tumour cells (NCI), 48 h
UO-31 renal = tested on: UO-31 renal
HCT-116 colon = tested on: HCT-116 colon
NCI-H226 lung = tested on: NCI-H226 lung
HOP-62 NSCLC = tested on: HOP-62 NSCLC
LOX IMVI melanoma = tested on: LOX IMVI melanoma
ACHN renal = tested on: ACHN renal
SK-MEL-2 melanoma = tested on: SK-MEL-2 melanoma
SF-268 CNS = tested on: SF-268 CNS
M14 melanoma = tested on: M14 melanoma
MALME-3M melanoma = tested on: MALME-3M melanoma
HOP-92 NSCLC = tested on: HOP-92 NSCLC
SK-OV-3 ovarian = tested on: SK-OV-3 ovarian
OVCAR-8 ovarian = tested on: OVCAR-8 ovarian
UACC-62 melanoma = tested on: UACC-62 melanoma
RPMI-8226 leukemia = tested on: RPMI-8226 leukemia
CCRF-CEM leukemia = tested on: CCRF-CEM leukemia
PC-3 prostate = tested on: PC-3 prostate
MDA-MB-231 breast = tested on: MDA-MB-231 breast
HS 578T breast = tested on: HS 578T breast
KM12 colon = tested on: KM12 colon
HCT-15 colon = tested on: HCT-15 colon
SK-MEL-5 melanoma = tested on: SK-MEL-5 melanoma
SF-539 CNS = tested on: SF-539 CNS
SW-620 colon = tested on: SW-620 colon
SNB-75 CNS = tested on: SNB-75 CNS
RXF 393 renal = tested on: RXF 393 renal
EKVX NSCLC = tested on: EKVX NSCLC
MOLT-4 leukemia = tested on: MOLT-4 leukemia
BT-549 breast = tested on: BT-549 breast
SR leukemia = tested on: SR leukemia
T-47D breast = tested on: T-47D breast
NCI/ADR-RES ovarian = tested on: NCI/ADR-RES ovarian
SF-295 CNS = tested on: SF-295 CNS
MCF7 breast = tested on: MCF7 breast
786-0 renal = tested on: 786-0 renal
MDA-MB-435 = tested on: MDA-MB-435
K-562 leukemia = tested on: K-562 leukemia
SNB-19 CNS = tested on: SNB-19 CNS
IGROV1 ovarian = tested on: IGROV1 ovarian
NCI-H460 lung = tested on: NCI-H460 lung
DU-145 prostate = tested on: DU-145 prostate
U251 CNS = tested on: U251 CNS
SK-MEL-28 melanoma = tested on: SK-MEL-28 melanoma
OVCAR-3 ovarian = tested on: OVCAR-3 ovarian
A549 NSCLC = tested on: A549 NSCLC
COLO 205 colon = tested on: COLO 205 colon
HL-60(TB) leukemia = tested on: HL-60(TB) leukemia
A498 renal = tested on: A498 renal
UACC-257 melanoma = tested on: UACC-257 melanoma
HCC-2998 colon = tested on: HCC-2998 colon
NCI-H522 lung = tested on: NCI-H522 lung
SN12C renal = tested on: SN12C renal
CAKI-1 renal = tested on: CAKI-1 renal
OVCAR-4 ovarian = tested on: OVCAR-4 ovarian
OVCAR-5 ovarian = tested on: OVCAR-5 ovarian
HT29 colon = tested on: HT29 colon
TK-10 renal = tested on: TK-10 renal
NCI-H23 lung = tested on: NCI-H23 lung
MDA-N = tested on: MDA-N

## COc1cc(/C=C/c2cc(/C=C/c3ccc(O)c(OC)c3)[nH]c(=O)n2)ccc1O
UO-31 renal
  GI50: 3.71 µM
  TGI: 58.6 µM
HCT-116 colon
  GI50: 2.48 µM
  TGI: 12.4 µM
NCI-H226 lung
  GI50: 3.48 µM
  TGI: 22.5 µM
HOP-62 NSCLC
  GI50: 4.11 µM
  TGI: 17.6 µM
LOX IMVI melanoma
  GI50: 3.16 µM
  TGI: > 100 µM
ACHN renal
  GI50: 8.84 µM
  TGI: > 100 µM
SK-MEL-2 melanoma
  GI50: 2.88 µM
  TGI: 6.7 µM
SF-268 CNS
  GI50: 4.58 µM
  TGI: > 100 µM
M14 melanoma
  GI50: 3.12 µM
  TGI: 15.4 µM
MALME-3M melanoma
  GI50: 3.91 µM
  TGI: > 100 µM
HOP-92 NSCLC
  GI50: 2.28 µM
  TGI: 9.24 µM
SK-OV-3 ovarian
  GI50: 2.33 µM
  TGI: 4.89 µM
OVCAR-8 ovarian
  GI50: 3.01 µM
  TGI: 12.7 µM
UACC-62 melanoma
  GI50: 3.39 µM
  TGI: 43.2 µM
RPMI-8226 leukemia
  GI50: 2.1 µM
  TGI: 5.68 µM
CCRF-CEM leukemia
  GI50: 2.1 µM
  TGI: 6.22 µM
PC-3 prostate
  GI50: 3.2 µM
  TGI: 18.6 µM
MDA-MB-231 breast
  GI50: 3.59 µM
  TGI: > 100 µM
HS 578T breast
  GI50: 1.8 µM
  TGI: 6.75 µM
KM12 colon
  GI50: 3.44 µM
  TGI: 14.2 µM
HCT-15 colon
  GI50: 5.43 µM
  TGI: > 100 µM
SK-MEL-5 melanoma
  GI50: 3.7 µM
  TGI: 36.1 µM
SF-539 CNS
  GI50: 3.87 µM
  TGI: > 100 µM
SW-620 colon
  GI50: 3.17 µM
  TGI: 16.6 µM
SNB-75 CNS
  GI50: 1.72 µM
  TGI: 12 µM
RXF 393 renal
  GI50: 2.24 µM
  TGI: 4.93 µM
EKVX NSCLC
  GI50: 3.89 µM
  TGI: 72.8 µM
MOLT-4 leukemia
  GI50: 2.55 µM
  TGI: 11.7 µM
BT-549 breast
  GI50: 2.06 µM
  TGI: 8.08 µM
SR leukemia
  GI50: 1.91 µM
  TGI: 6.18 µM
T-47D breast
  GI50: 6.5 µM
  TGI: 36.9 µM
NCI/ADR-RES ovarian
  GI50: 16.7 µM
  TGI: > 100 µM
SF-295 CNS
  GI50: 2.75 µM
  TGI: 9.87 µM
MCF7 breast
  GI50: 2.96 µM
  TGI: 11.4 µM
786-0 renal
  GI50: 2.73 µM
  TGI: 33 µM
MDA-MB-435
  GI50: 2.72 µM
  TGI: 18.2 µM
K-562 leukemia
  GI50: 3.66 µM
  TGI: 35.8 µM
SNB-19 CNS
  GI50: 3.38 µM
  TGI: > 100 µM
IGROV1 ovarian
  GI50: 4.41 µM
  TGI: > 100 µM
NCI-H460 lung
  GI50: 3.12 µM
  TGI: 18.5 µM
DU-145 prostate
  GI50: 4.91 µM
  TGI: 35.4 µM
U251 CNS
  GI50: 3.15 µM
  TGI: 13.5 µM
SK-MEL-28 melanoma
  GI50: 3.05 µM
  TGI: 13.1 µM
OVCAR-3 ovarian
  GI50: 3.8 µM
  TGI: 33.5 µM
A549 NSCLC
  GI50: 5.2 µM
  TGI: 27.6 µM
COLO 205 colon
  GI50: 2.03 µM
  TGI: 4.03 µM
HL-60(TB) leukemia
  GI50: 3.74 µM
  TGI: 12.1 µM
A498 renal
  GI50: 3.11 µM
  TGI: 25.2 µM
UACC-257 melanoma
  GI50: 3.36 µM
  TGI: 17.9 µM
HCC-2998 colon
  GI50: 3.55 µM
  TGI: 14.3 µM
NCI-H522 lung
  GI50: 2.57 µM
  TGI: 7.95 µM
SN12C renal
  GI50: 4.38 µM
  TGI: > 100 µM
CAKI-1 renal
  GI50: 3.38 µM
  TGI: > 100 µM
OVCAR-4 ovarian
  GI50: 2.46 µM
  TGI: 16.8 µM
OVCAR-5 ovarian
  GI50: 10 µM
  TGI: 28.4 µM
HT29 colon
  GI50: 1.3 µM
  TGI: 2.67 µM
TK-10 renal
  GI50: 6.13 µM
  TGI: 36 µM

## CCOC(=O)N1C(=S)C(C(=O)OC)(C(=O)OC)N=C1C
UO-31 renal
  TGI: > 100 µM
HCT-116 colon
  TGI: > 100 µM
NCI-H226 lung
  TGI: > 100 µM
HOP-62 NSCLC
  TGI: > 100 µM
LOX IMVI melanoma
  TGI: > 100 µM
ACHN renal
  TGI: > 100 µM
SK-MEL-2 melanoma
  TGI: > 100 µM
M14 melanoma
  TGI: > 100 µM
HOP-92 NSCLC
  TGI: > 100 µM
SK-OV-3 ovarian
  TGI: > 100 µM
OVCAR-8 ovarian
  TGI: > 100 µM
UACC-62 melanoma
  TGI: > 100 µM
RPMI-8226 leukemia
  TGI: > 100 µM
CCRF-CEM leukemia
  TGI: > 100 µM
PC-3 prostate
  TGI: > 100 µM
KM12 colon
  TGI: > 100 µM
HCT-15 colon
  TGI: > 100 µM
SK-MEL-5 melanoma
  TGI: > 100 µM
SW-620 colon
  TGI: > 100 µM
SNB-75 CNS
  TGI: > 100 µM
NCI-H23 lung
  TGI: > 100 µM
RXF 393 renal
  TGI: > 100 µM
EKVX NSCLC
  TGI: > 100 µM
MOLT-4 leukemia
  TGI: > 100 µM
BT-549 breast
  TGI: > 100 µM
SR leukemia
  TGI: > 100 µM
T-47D breast
  TGI: > 100 µM
NCI/ADR-RES ovarian
  TGI: > 100 µM
SF-295 CNS
  TGI: > 100 µM
MCF7 breast
  TGI: > 100 µM
786-0 renal
  TGI: > 100 µM
MDA-MB-435
  TGI: > 100 µM
K-562 leukemia
  TGI: > 100 µM
SNB-19 CNS
  TGI: > 100 µM
IGROV1 ovarian
  TGI: > 100 µM
NCI-H460 lung
  TGI: > 100 µM
DU-145 prostate
  TGI: > 100 µM
U251 CNS
  TGI: > 100 µM
SK-MEL-28 melanoma
  TGI: > 100 µM
OVCAR-3 ovarian
  TGI: > 100 µM
MDA-N
  TGI: > 100 µM
A549 NSCLC
  TGI: > 100 µM
COLO 205 colon
  TGI: > 100 µM
HL-60(TB) leukemia
  TGI: > 100 µM
A498 renal
  TGI: > 100 µM
UACC-257 melanoma
  TGI: > 100 µM
HCC-2998 colon
  TGI: > 100 µM
SN12C renal
  TGI: > 100 µM
CAKI-1 renal
  TGI: > 100 µM
OVCAR-4 ovarian
  TGI: > 100 µM
OVCAR-5 ovarian
  TGI: > 100 µM
TK-10 renal
  TGI: > 100 µM

— PubChem BioAssay (NCI)
